Experimental data reported in patent US20030159953A1, “Carbohydrate medical solution and sulphite stabilisator in a multiple compartment container and use thereof” (priority 2003, published 2003).

What was measured:
[1] = tested on: mouse fibroblasts cells L-929; experiment: In vitro assay for cytotoxicity (inhibition of cell growth, ICG); format: cell-based
Description: Medical solutions used for peritoneal dialysis were mixed with one part cell growth medium and 10% (volume/volume) fetal calf serum was added (Wieslander et al., 1991, Kidney Int. 40:77-79). Basal cytotoxicity of medical solution used for peritoneal dialysis were determined on mouse fibroblasts cells L-929 (CCL-1; ATTC, Rockville, Md., USA) as described earlier (Wieslander et al. 1993, Advances in Peritoneal Dialys, 9:31-35) and expressed as inhibition of cellgrowth (ICG).

[2] = Determination of acetaldehyde and formaldehyde (HPLC, 2,4-DNPH derivatives); format: physicochemical; conditions: Example 5: 1.5% glucose solution, sodium bisulphite 0, 0.5, 1 mM added before or after heat sterilisation 121° C. 1 hour
Description: Determination of acetaldehyde and formaldehyde: The samples for the determination of acetaldehyde were diluted 20 times to a final volume of 4 ml, prior to analysis. Acetaldehyde was prepared as hydrazone derivatives using 2,4-DNPH as derivative reagent. The standards were prepared in range 1.1-11.4 μM acetaldehyde, and 1.7-16.7 μM formaldehyde. Standards and samples were prepared by adding 2 ml 0.08% (weight/volume) 2,4-DNPH to 4 ml of each sample. The sample were concentrated on a solid phase extraction C18 column (Bond Elut LRC 200 mg/3 ml) and after rinsing with water, eluted with 1.6 ml acetonitrile. The analytical column was a Supelco C18 column (5 μm, 15 cm×4,6 mm). The elution of the substances was performed at constant flow of 1.7 ml/min by using a linear gradient of acetonitrile/water. The percentage acetonitrile/water (volume/volume) was initially 35/65 and at the gradient stop 12 minutes later 80/20. The wavelenght was set at 240 nm and the injected volume was 20 μl. The limit of quantification was for acetaldehyde. 1.1 μM. And for formaldehyde 1.7 μM.

## O=S([O-])O.[Na+] [sodium bisulphite]
[1]; Example 3: bisulphite in glucose compartment, 0-0.5 mM in final solution, 4% glucose, sterilised 121° C. 1 hour, mixed post sterilisation
  inhibition of cell growth (ICG): decrease of the ICG value
[1]; Example 4: sulphite in electrolyte compartment, concentrations in final solution as in example 3, 4% glucose, sterilised 121° C. 1 hour
  inhibition of cell growth (ICG): decrease of the ICG value
[1]; Example 5: 1.5% glucose solution, sodium bisulphite 0, 0.5, 1 mM added before or after heat sterilisation 121° C. 1 hour
  inhibition of cell growth (ICG): decrease of the ICG value
[2]
  level of acetaldehyde in sterilised solution: decreased levels
  level of formaldehyde in sterilised solution: decreased levels
